Assay results from publication PMC10254773, “Identification of Flavonoids from Scutellaria barbata D. Don as Inhibitors of HIV-1 and Cathepsin L Proteases and Their Structure–Activity Relationships” (Molecules, 2023).

Biological target: T1, HIV-1 PR (HIV-1 protease) (HIV-1 M:B_HXB2R, UniProt P04585)
T1 construct: gene gag-pol; mature protease cut from Gag-Pol polyprotein (Pr160Gag-Pol); SensoLyte 520 HIV-1 assay kit; homodimer
Type: biochemical
Conditions: n = 3; read-out: HIV-1 PR / IC50 ± SD (mg/mL) (converted)

Row | Compound | IC50 [µM]
1 | O=c1cc(-c2ccc(O)c(O)c2)oc2cc(O)cc(O)c12 [Luteolin] | 136
2 | O=C1C[C@@H](c2ccc(O)cc2)Oc2cc(O)cc(O)c21 [Narigenin] | 661
3 | O=c1cc(-c2ccc(O)cc2)oc2cc(O)cc(O)c12 [Apigenin] | 481
4 | COc1c(O)cc(O)c2c(=O)cc(-c3ccccc3)oc12 [Wogonin] | 1410
5 | O=c1cc(-c2ccc(O)cc2)oc2cc(O)c(O)c(O)c12 [Scutellarein] | 238
6 | O=C(O)[C@H]1O[C@@H](Oc2cc3oc(-c4ccccc4)cc(=O)c3c(O)c2O)[C@H](O)[C@@H](O)[C@@H]1O [Baicalin] | 1860
